Test system: subjects with TRD
Experiment: Adverse events (TEAEs, SAEs) in the TRD study
Assay type: in vivo, human
Settings: 30 mg (n = 33)
Source text: The definitions of an AE and SAE can be found in Section F. AEs were reported by the subject (or, when appropriate, by a caregiver, surrogate, or the subject's legally authorized representative). The Investigator and any designees were responsible for detecting, documenting, and recording events that meet the definition of an AE or SAE and remained responsible for following up AEs that were serious, considered related to the study treatment or study procedures, or that caused the subject to discontinue from the study.
All AEs were collected from the signing of the ICF until the second follow-up visit (Day 15) at the time points specified in the Schedule of Activities (Section C). Medical occurrences that began before the start of study treatment but after obtaining informed consent were recorded on the Medical History/Current Medical Conditions section of the CRF, not the AE section. All SAEs were recorded and reported to the Sponsor or designee within 24 hours as indicated in Section F. The Investigator submitted any updated SAE data to the Sponsor or designee within 24 hours of it being available. Investigators were not obligated to actively seek AE or SAE information after the conclusion of study participation. However, if the Investigator learns of any SAE, including a death, at any time after a subject has been discharged from the study, and he/she considers the event to be reasonably related to the study treatment or study participation, the Investigator must promptly notify the Sponsor or designee. The method of recording, evaluating, and assessing the causality of AEs and SAEs and the procedures for completing and transmitting SAE reports are provided in Section F.
An AE is any untoward medical occurrence in a patient or subject, temporally associated with the use of study treatment, whether or not considered related to the study treatment. An AE can therefore be any unfavorable and unintended sign (including an abnormal laboratory finding), symptom, or disease (new or exacerbated) temporally associated with the use of study treatment.
If an event is not an AE per the definition above, then it cannot be an SAE even if serious conditions are met (e.g., hospitalization for signs/symptoms of the disease under study). A Serious Adverse Event (SAE) is defined as any untoward medical occurrence that, at any dose: a) results in death; b) is life-threatening; c) requires inpatient hospitalization or prolongation of existing hospitalization; d) results in persistent disability/incapacity; or e) is a congenital anomaly/birth defect. The term “life-threatening” in the definition of “serious” refers to an event in which the subject was at risk of death at the time of the event. […] In general, hospitalization signifies that the subject has been detained (usually involving at least an overnight stay) at the hospital or emergency ward for observation and/or treatment that would not have been appropriate in the physician's office or outpatient setting. Complications that occur during hospitalization are AEs. If a complication prolongs hospitalization or fulfills any other serious criteria, the event is serious. When in doubt as to whether “hospitalization” occurred or was necessary, the AE should be considered serious. […] The term disability means a substantial disruption of a person's ability to conduct normal life functions.
(MedDRA; Version 23.0 or higher). Treatment-emergent adverse events (TEAEs) are AEs with onset or worsening after the start of study treatment. The AE summaries will be primarily based on TEAEs. The number and percentage of subjects with TEAEs will be summarized by treatment group, system organ class, and preferred term for all TEAEs, treatment-related TEAEs, SAEs, serious TEAEs, severe TEAEs, TEAEs of special interest, and all TEAEs leading to study drug discontinuation. All TEAEs will be further summarized by maximum severity and causality. The TEAEs of special interest will be identified in the SAP. […]

SMILES: CN[C@@]1(c2ccccc2Cl)CCCCC1=O [PCN 101]
- Number of subjects with any treatment-emergent adverse events: 11
- Number of treatment-emergent adverse events: 22
- Subjects with any treatment-emergent adverse events: (%) of subjects: (33)
- TEAE PT Alopecia: (%) of subjects: (0)
- TEAE PT Alopecia: number of subjects: 0
- TEAE PT Aversion: (%) of subjects: (0)
- TEAE PT Aversion: number of subjects: 0
- TEAE PT Balance disorder: (%) of subjects: (0)
- TEAE PT Balance disorder: number of subjects: 0
- TEAE PT Blood pressure increased: (%) of subjects: (0)
- TEAE PT Blood pressure increased: number of subjects: 0
- TEAE PT Bruxism: (%) of subjects: (0)
- TEAE PT Bruxism: number of subjects: 0
- TEAE PT Confusional state: (%) of subjects: (0)
- TEAE PT Confusional state: number of subjects: 0
- TEAE PT Defect conduction intraventricular: (%) of subjects: (0)
- TEAE PT Defect conduction intraventricular: number of subjects: 0
- TEAE PT Derealisation: (%) of subjects: (12)
- TEAE PT Derealisation: number of subjects: 4
- TEAE PT Diarrhoea: (%) of subjects: (0)
- TEAE PT Diarrhoea: number of subjects: 0
- TEAE PT Dissociation: (%) of subjects: (0)
- TEAE PT Dissociation: number of subjects: 0
- TEAE PT Dizziness: (%) of subjects: (6)
- TEAE PT Dizziness: number of subjects: 2
- TEAE PT Dry mouth: (%) of subjects: (0)
- TEAE PT Dry mouth: number of subjects: 0
- TEAE PT Dysarthria: (%) of subjects: (0)
- TEAE PT Dysarthria: number of subjects: 0
- TEAE PT Dyspnoea exertional: (%) of subjects: (3)
- TEAE PT Dyspnoea exertional: number of subjects: 1
- TEAE PT Energy increased: (%) of subjects: (0)
- TEAE PT Energy increased: number of subjects: 0
- TEAE PT Euphoric mood: (%) of subjects: (0)
- TEAE PT Euphoric mood: number of subjects: 0
- TEAE PT Fatigue: (%) of subjects: (0)
- TEAE PT Fatigue: number of subjects: 0
- TEAE PT Feeling abnormal: (%) of subjects: (0)
- TEAE PT Feeling abnormal: number of subjects: 0
- TEAE PT Feeling drunk: (%) of subjects: (0)
- TEAE PT Feeling drunk: number of subjects: 0
- TEAE PT Haematuria: (%) of subjects: (3)
- TEAE PT Haematuria: number of subjects: 1
- TEAE PT Headache: (%) of subjects: (9)
- TEAE PT Headache: number of subjects: 3
- TEAE PT Hyperacusis: (%) of subjects: (0)
- TEAE PT Hyperacusis: number of subjects: 0
- TEAE PT Hyperhidrosis: (%) of subjects: (3)
- TEAE PT Hyperhidrosis: number of subjects: 1
- TEAE PT Hyperphagia: (%) of subjects: (0)
- TEAE PT Hyperphagia: number of subjects: 0
- TEAE PT Hypoaesthesia oral: (%) of subjects: (0)
- TEAE PT Hypoaesthesia oral: number of subjects: 0
- TEAE PT Hypoaesthesia: (%) of subjects: (0)
- TEAE PT Hypoaesthesia: number of subjects: 0
- TEAE PT Increased appetite: (%) of subjects: (0)
- TEAE PT Increased appetite: number of subjects: 0
- TEAE PT Influenza like illness: (%) of subjects: (0)
- TEAE PT Influenza like illness: number of subjects: 0
- TEAE PT Infusion site hypoaesthesia: (%) of subjects: (0)
- TEAE PT Infusion site hypoaesthesia: number of subjects: 0
- TEAE PT Left ventricular hypertrophy: (%) of subjects: (0)
- TEAE PT Left ventricular hypertrophy: number of subjects: 0
- TEAE PT Lethargy: (%) of subjects: (0)
- TEAE PT Lethargy: number of subjects: 0
- TEAE PT Limb discomfort: (%) of subjects: (0)
- TEAE PT Limb discomfort: number of subjects: 0
- TEAE PT Logorrhoea: (%) of subjects: (0)
- TEAE PT Logorrhoea: number of subjects: 0
- TEAE PT Memory impairment: (%) of subjects: (0)
- TEAE PT Memory impairment: number of subjects: 0
- TEAE PT Muscle strain: (%) of subjects: (3)
- TEAE PT Muscle strain: number of subjects: 1
- TEAE PT Muscular weakness: (%) of subjects: (0)
- TEAE PT Muscular weakness: number of subjects: 0
- TEAE PT Nausea: (%) of subjects: (0)
- TEAE PT Nausea: number of subjects: 0
- TEAE PT Paraesthesia: (%) of subjects: (0)
- TEAE PT Paraesthesia: number of subjects: 0
- TEAE PT Rhinorrhoea: (%) of subjects: (0)
- TEAE PT Rhinorrhoea: number of subjects: 0
- TEAE PT Sedation: (%) of subjects: (0)
- TEAE PT Sedation: number of subjects: 0
- TEAE PT Sensory disturbance: (%) of subjects: (3)
- TEAE PT Sensory disturbance: number of subjects: 1
- TEAE PT Sinusitis: (%) of subjects: (0)
- TEAE PT Sinusitis: number of subjects: 0
- TEAE PT Skin abrasion: (%) of subjects: (0)
- TEAE PT Skin abrasion: number of subjects: 0
- TEAE PT Slow speech: (%) of subjects: (0)
- TEAE PT Slow speech: number of subjects: 0
- TEAE PT Smoke sensitivity: (%) of subjects: (0)
- TEAE PT Smoke sensitivity: number of subjects: 0
- TEAE PT Somnolence: (%) of subjects: (12)
- TEAE PT Somnolence: number of subjects: 4
- TEAE PT Tachycardia: (%) of subjects: (0)
- TEAE PT Tachycardia: number of subjects: 0
- TEAE PT Throat tightness: (%) of subjects: (0)
- TEAE PT Throat tightness: number of subjects: 0
- TEAE PT Time perception altered: (%) of subjects: (0)
- TEAE PT Time perception altered: number of subjects: 0
- TEAE PT Urinary tract infection: (%) of subjects: (3)
- TEAE PT Urinary tract infection: number of subjects: 1
- TEAE PT Venous injury: (%) of subjects: (0)
- TEAE PT Venous injury: number of subjects: 0
- TEAE PT Vertigo: (%) of subjects: (3)
- TEAE PT Vertigo: number of subjects: 1
- TEAE PT Vessel puncture site erythema: (%) of subjects: (3)
- TEAE PT Vessel puncture site erythema: number of subjects: 1
- TEAE PT Vision blurred: (%) of subjects: (0)
- TEAE PT Vision blurred: number of subjects: 0
- TEAE PT Visual impairment: (%) of subjects: (0)
- TEAE PT Visual impairment: number of subjects: 0
- TEAE SOC Cardiac disorders: (%) of subjects: (0)
- TEAE SOC Cardiac disorders: number of subjects: 0
- TEAE SOC Ear and labyrinth disorders: (%) of subjects: (3)
- TEAE SOC Ear and labyrinth disorders: number of subjects: 1
- TEAE SOC Eye disorders: (%) of subjects: (0)
- TEAE SOC Eye disorders: number of subjects: 0
- TEAE SOC Gastrointestinal disorders: (%) of subjects: (0)
- TEAE SOC Gastrointestinal disorders: number of subjects: 0
- TEAE SOC General disorders and administration site conditions: (%) of subjects: (3)
- TEAE SOC General disorders and administration site conditions: number of subjects: 1
- TEAE SOC Immune system disorders: (%) of subjects: (0)
- TEAE SOC Immune system disorders: number of subjects: 0
- TEAE SOC Infections and infestations: (%) of subjects: (3)
- TEAE SOC Infections and infestations: number of subjects: 1
- TEAE SOC Injury, poisoning and procedural complications: (%) of subjects: (3)
- TEAE SOC Injury, poisoning and procedural complications: number of subjects: 1
- TEAE SOC Investigations: (%) of subjects: (0)
- TEAE SOC Investigations: number of subjects: 0
- TEAE SOC Metabolism and nutrition disorders: (%) of subjects: (0)
- TEAE SOC Metabolism and nutrition disorders: number of subjects: 0
- TEAE SOC Musculoskeletal and connective tissue disorders: (%) of subjects: (0)
- TEAE SOC Musculoskeletal and connective tissue disorders: number of subjects: 0
- TEAE SOC Nervous system disorders: (%) of subjects: (27)
- TEAE SOC Nervous system disorders: number of subjects: 9
- TEAE SOC Psychiatric disorders: (%) of subjects: (12)
- TEAE SOC Psychiatric disorders: number of subjects: 4
- TEAE SOC Renal and urinary disorders: (%) of subjects: (3)
- TEAE SOC Renal and urinary disorders: number of subjects: 1
- TEAE SOC Respiratory, thoracic and mediastinal disorders: (%) of subjects: (3)
- TEAE SOC Respiratory, thoracic and mediastinal disorders: number of subjects: 1
- TEAE SOC Skin and subcutaneous tissue disorders: (%) of subjects: (3)
- TEAE SOC Skin and subcutaneous tissue disorders: number of subjects: 1
